Reference: patent publication US8829014B2, “Thiazole and thiophene analogues, and their use in treating autoimmune diseases and cancers” (Board of Supervisors of Louisiana State University and …, priority 2006, dated 2014)
“Also recorded” adds a separate entry of the source. Where two headings read alike, the source gives them in different places. Marks after values point to notes of the source that are not given here.

How the values were obtained:
carageenan-induced edema = experiment: Carrageenan-induced rat paw edema test (anti-inflammatory activity); assay type: in vivo, Sprague-Dawley rats; conditions: for inhibition in vivo at 50 mg/kg: po, 3 h, carrageenan-induced rat paw edema, defined in Example 397, read-out: % Protection
Procedure, shortened: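 Edema was raised by sub-plantar injection of 1% carrageenan into the right hind paw, 1 h after dosing 18 h-fasted male/female Sprague-Dawley rats (150-250 g) with 50 mg/kg p.o. in 0.1% CMC. Swelling was measured by displacement 3 h later and expressed as % protection against saline control.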

NF-κB = NF-κB inhibitor screen: basal NF-κB-dependent luciferase expression in HEK/NF-κB cell line; assay type: cell-based; conditions: for inhibition at 1 µM: determined as described in Example 398, read-out: NFkB inhibition @ 1 uM; for inhibition of NF-κB (summary statement): summary in the disclosure
Procedure, shortened: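 Basal NF-κB-driven luciferase (six-copy element, stable HEK293 line) was read with Brite-Glo. Compound was added in 0.3% DMSO 24 h post-plating, initially at 1.0 μM and then across 10–3300 nM in six steps, in triplicate wells. Signals were expressed relative to DMSO or to the lowest concentration tested.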

AP-1 [1] = experiment: AP-1 inhibitor screen: basal AP-1-dependent luciferase expression in HEK/AP-1 cell line; assay type: cell-based; conditions: for inhibition at 1 µM: AP1, determined as described in Example 398
Procedure, shortened: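 Compound effects on unstimulated reporter signal were tested: 1.0 μM compound (0.3% DMSO) for 48 hr on HEK cells bearing an AP-1 (TGACTAA ×3)-luciferase construct, seeded 24 hr earlier. Triplicate luminescence means were normalized to DMSO-only wells; dose-response experiments were repeated 2–4 times.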

AP-1 [2] = experiment: PMA-induced AP-1 luciferase expression in HEK cells; assay type: cell-based

| Molecule | inhibition in vivo at 50 mg/kg (carageenan-induced edema) [%] | inhibition at 1 µM (NF-κB) [%] | inhibition of NF-κB (summary statement) (NF-κB) | inhibition at 1 µM (AP-1 [1]) [%] | % Protection P (carageenan-induced edema; rat paw edema, 50 mg/kg, reading 3 hours after carrageenan, [(Control−Test)/Control]×100%) [%] | basal NF-κB-dependent luciferase, six-point dose response (NF-κB; 10 nM-3300 nM (FIG. 12), listed as Compound 35) | inhibition of basal NF-κB-dependent luciferase expression (NF-κB; 3.3 μM (FIG. 12)) | basal AP-1-dependent luciferase, six-point dose response (AP-1 [1]; 10 nM-3300 nM (FIG. 14)) | AP-1 inhibition @ 1 uM (AP-1 [2]; 1 uM, luciferase in HEK/AP-1 cells, as described in Example 398) | inhibition in vivo at 50 mg/kg (carageenan-induced edema; Rattus norvegicus) [%] | AP-1 % inhibition (AP-1 [2]; PMA-induced, compound added 1 h before inducer, luciferase 24 h later, normalized to DMSO vehicle) |
| --- | --- | --- | --- | --- | --- | --- | --- | --- | --- | --- | --- |
| COc1ccc(-n2c(-c3sc(Nc4ccc(Cl)cc4)nc3-c3ccccc3)nc3ccccc3c2=O)cc1 [Example 225, 2-[2-(4-Chloro-phenylamino)-4-phenyl-thiazol-5-yl]-3-(4-methoxyphenyl)-3H-quinazolin-4-one] | 80 | 47 | capable of inhibiting | 58 | – | – | – | – | – | – | – |
| Bis-[2-(4-Chloro-phenylamino)-4-benzayl-thiazole-5-yl]-methanone [Example 134] | – | – | capable of inhibiting | – | 75.69 | substantial activity at submicromolar concentrations; also recorded: robust inhibition | about 50% | substantial activity at submicromolar concentrations | 72.77 | – | – |
| CNc1nc(C)c(-c2nc3ccccc3c(=O)n2-c2ccc(Cl)cc2)s1 [Example 244, 2-(4-Methyl-2-methylamino-thiazol-5-yl)-3-(4-chloro-phenyl)-3H-quinazolin-4-one] | – | 93 | – | 82 | – | – | – | – | – | 71 | 87** % |
